Assay results reported in PubChem BioAssay AID1963444 (Molecular Pharmacology Branch, DTP, NCI, 2024).

System: HSSY-II complex spheroid growth, percent test/control
Experiment: Anticancer human tumor HSSY-II cell line growth inhibition [Asc];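 note: spheroids exposed to drug for 7 days before reading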
Details: for IC50: curve of first compound; for viability, T/C: stronger effect = lower value
Method in brief: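 Concentration series start at each agent's clinical Cmax, or at 10 microM when none is established, and drop in half-log steps; agents are applied alone or together to complex spheroids built with HUVEC and hMSC.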

[1] = second compound 0.01 µM, first compound 0.0316 µM
[2] = second compound 0.01 µM, first compound 0.1 µM
[3] = second compound 0.01 µM, first compound 0.316 µM
[4] = second compound 0.01 µM, first compound 1 µM
[5] = second compound 0.0316 µM, first compound 0.0316 µM
[6] = second compound 0.0316 µM, first compound 0.1 µM
[7] = second compound 0.0316 µM, first compound 0.316 µM
[8] = second compound 0.0316 µM, first compound 1 µM
[9] = second compound 0.1 µM, first compound 0.0316 µM
[10] = second compound 0.1 µM, first compound 0.1 µM
[11] = second compound 0.1 µM, first compound 0.316 µM
[12] = second compound 0.1 µM, first compound 1 µM
[13] = second compound 0.316 µM, first compound 0.0316 µM
[14] = second compound 0.316 µM, first compound 0.1 µM
[15] = second compound 0.316 µM, first compound 0.316 µM
[16] = second compound 0.316 µM, first compound 1 µM
[17] = second compound 1 µM, first compound 0.0316 µM
[18] = second compound 1 µM, first compound 0.1 µM
[19] = second compound 1 µM, first compound 0.316 µM
[20] = second compound 1 µM, first compound 1 µM
[21] = second compound 0.01 µM, first compound 0.00316 µM
[22] = second compound 0.01 µM, first compound 0.01 µM
[23] = second compound 0.0316 µM, first compound 0.00316 µM
[24] = second compound 0.0316 µM, first compound 0.01 µM
[25] = second compound 0.1 µM, first compound 0.00316 µM
[26] = second compound 0.1 µM, first compound 0.01 µM
[27] = second compound 0.316 µM, first compound 0.00316 µM
[28] = second compound 0.316 µM, first compound 0.01 µM
[29] = second compound 1 µM, first compound 0.00316 µM
[30] = second compound 1 µM, first compound 0.01 µM

Compound	IC50 (second compound 0.01 µM) [nM]	IC50 (second compound 0.0316 µM) [nM]	IC50 (second compound 0.1 µM) [nM]	IC50 (second compound 0.316 µM) [nM]	IC50 (second compound 1 µM) [nM]	viability, T/C [1] [%]	viability, T/C [2] [%]	viability, T/C [3] [%]	viability, T/C [4] [%]	viability, T/C [5] [%]	viability, T/C [6] [%]	viability, T/C [7] [%]	viability, T/C [8] [%]	viability, T/C [9] [%]	viability, T/C [10] [%]	viability, T/C [11] [%]	viability, T/C [13] [%]	viability, T/C [14] [%]	viability, T/C [17] [%]	viability, T/C [18] [%]	other results
C=CC(=O)N1CCN(c2nc(=O)n(-c3c(C)ccnc3C(C)C)c3nc(-c4c(O)cccc4F)c(F)cc23)C(C)C1 (stereo not given) + CNC(C)C(=O)NC1CN(S(=O)(=O)c2cccc(S(=O)(=O)N3CCC4CCC(C(=O)NC(c5ccccc5)c5ccccc5)N4C(=O)C(NC(=O)C(C)NC)C3)c2)CCC2CCC(C(=O)NC(c3ccccc3)c3ccccc3)N2C1=O	7990	5850	5980	7420	6390	97.5	108	107	101	92.9	104	91.7	89.8	86.9	91.8	90.6	89.5	98.9	82.7	87.6	viability, T/C (second compound 0.01 µM, first compound 3.16 µM): 94.3%; viability, T/C (second compound 0.01 µM, first compound 10 µM): 39.1%; viability, T/C (second compound 0.0316 µM, first compound 3.16 µM): 72%; viability, T/C (second compound 0.0316 µM, first compound 10 µM): 30.9%; viability, T/C [12]: 87.5%; viability, T/C (second compound 0.1 µM, first compound 3.16 µM): 68.4%; viability, T/C (second compound 0.1 µM, first compound 10 µM): 35.1%; viability, T/C [15]: 101%; viability, T/C [16]: 92.2%; viability, T/C (second compound 0.316 µM, first compound 3.16 µM): 89.1%; viability, T/C (second compound 0.316 µM, first compound 10 µM): 36.2%; viability, T/C [19]: 88.5%; viability, T/C [20]: 73.5%; viability, T/C (second compound 1 µM, first compound 3.16 µM): 89%; viability, T/C (second compound 1 µM, first compound 10 µM): 28.1%
COc1c(OCCCN2CCOCC2)ccc2c3n(c(=NC(=O)c4cnc(N)nc4)nc12)CCN3 + CNC(C)C(=O)NC1CN(S(=O)(=O)c2cccc(S(=O)(=O)N3CCC4CCC(C(=O)NC(c5ccccc5)c5ccccc5)N4C(=O)C(NC(=O)C(C)NC)C3)c2)CCC2CCC(C(=O)NC(c3ccccc3)c3ccccc3)N2C1=O	44	45.1	34.9	45.9	54	51.4	36.8	22.4	12	54.8	34.3	21.8	9.94	49	38.8	24.7	53.8	34.5	63.2	33.7	viability, T/C [21]: 84.3%; viability, T/C [22]: 79.6%; viability, T/C [23]: 82%; viability, T/C [24]: 77.5%; viability, T/C [25]: 81.2%; viability, T/C [26]: 64.9%; viability, T/C [12]: 10.4%; viability, T/C [27]: 86.4%; viability, T/C [28]: 80.1%; viability, T/C [15]: 24.2%; viability, T/C [16]: 8.5%; viability, T/C [29]: 80.1%; viability, T/C [30]: 73.8%; viability, T/C [19]: 24.7%; viability, T/C [20]: 9.52%
NC1CCC(NC2CC2c2ccccc2)CC1 (stereo not given) + CNC(C)C(=O)NC1CN(S(=O)(=O)c2cccc(S(=O)(=O)N3CCC4CCC(C(=O)NC(c5ccccc5)c5ccccc5)N4C(=O)C(NC(=O)C(C)NC)C3)c2)CCC2CCC(C(=O)NC(c3ccccc3)c3ccccc3)N2C1=O	> 100	< 0.316	0.67	< 0.316	< 0.316	56.4	52.1			45.5	48.7			39	49.9		47.1	47.6	46.6	52.7	viability, T/C (second compound 0.01 µM, first compound 0.000316 µM): 59.5%; viability, T/C (second compound 0.01 µM, first compound 0.001 µM): 59.1%; viability, T/C [21]: 48.6%; viability, T/C [22]: 54.9%; viability, T/C (second compound 0.0316 µM, first compound 0.000316 µM): 43.9%; viability, T/C (second compound 0.0316 µM, first compound 0.001 µM): 43.3%; viability, T/C [23]: 46.4%; viability, T/C [24]: 49.3%; viability, T/C (second compound 0.1 µM, first compound 0.000316 µM): 56.2%; viability, T/C (second compound 0.1 µM, first compound 0.001 µM): 46.3%; viability, T/C [25]: 48.4%; viability, T/C [26]: 49.2%; viability, T/C (second compound 0.316 µM, first compound 0.000316 µM): 51.2%; viability, T/C (second compound 0.316 µM, first compound 0.001 µM): 44.2%; viability, T/C [27]: 49.4%; viability, T/C [28]: 43.4%; viability, T/C (second compound 1 µM, first compound 0.000316 µM): 38.7%; viability, T/C (second compound 1 µM, first compound 0.001 µM): 47.1%; viability, T/C [29]: 51.8%; viability, T/C [30]: 41.2%
